Key:
β-FGF = biological target: T1, β-FGF (Homo sapiens, UniProt P09038); assay: Elisa assay for binding of β-FGF to heparin; conditions: inhibition of β-FGF binding to heparin
T1 construct: purchased Sigma F0291
Experimental: Elisa assay for determination of binding of β-FGF to heparin—96 well microplates were coated overnight with Heparin-albumin (Lizard) and blocked with 1% BSA in PBS with 0.05% Tween and 0.01% thimerosal for 2 hrs. β-FGF was added to the plates at a concentration of 0.8 ng/ml and incubated for 45 min at 23-25° C. The amount of β-FGF bound to heparin was detected using anti-FGF monoclonal antibody (Sigma Cat. # F6162) at a concentration of 2.5 ng/ml and secondary antibodies Sheep anti-mouse IgG linked to horseradish peroxidase (1:3000). TMB (Pierce Cat. #34021) was used as a substrate for peroxidase.
The plates were read at 450 nm with a reference wavelength of 630 nm using a VERSAmax plate reader. […] Percent inhibition was calculated as compared with the control reactions pre-incubated with 1% DMSO only.

HT1080 cells = assay: In vitro assay of invasion inhibition (matrigel, BD BioCoat); type: cell-based; conditions: Homo sapiens, HT-1080
Experimental: In vitro assay of invasion inhibition—The ability of the compounds of the invention to inhibit cell invasion was determined quantitatively by the in vitro Endothelial Cell Migration assay using a BD BioCoat Angiogenesis System kit. The kit consisted of a 24-multiwell insert plate (FluoroBlok, BD Falcon) containing a microporous (3.0 μm pore size) polyethylene terephthalate (PET) membrane that was capable of blocking fluorescence completely (>99% efficiency). This membrane was uniformly coated with matrigel (BD Matrigel Matrix). The uniform layer of matrigel matrix served as a reconstituted authentic basement membrane in vitro, providing a true barrier to non-invasive cells, but allowing endothelial cells to attach to the membrane and freely migrate towards an angiogenic stimulus in the lower chamber of the insert plate. Post-labeling the cells with a fluorescent dye and measuring the fluorescence of invading cells in a fluorescent plate reader, provided quantitative measurement of cell invasion.
To cover the optimal seeding density for HT1080 cells, suspensions containing various cell concentrations were prepared: 1 ml of 3×10^5 cells/ml, 8 ml of 1.5×10^5 cells/ml and 1 ml of 0.75×10^5 cells/ml. […] Only those labeled cells that have invaded the matrigel and passed through the pores of the PET membrane, were detected.

HUVEC cell = assay: Cell Migration Assay (Boyden chamber); type: cell-based; conditions: Homo sapiens, HUVEC cells, 5 h, read-out: Inhibition of chemotaxis IC50
Experimental: Cord formation and cell migration assays were executed following explicit directives provided by the inventors of the present invention by the National Cancer Institute (Biological Testing Branch, Developmental Therapeutics Program, DCTD, NCI, Fairview Center, Suite 205, 1003 West 7th Street, Frederick, Md. 21701-8527).
Cell Migration Assay—Migration was assessed using a 48-well Boyden chamber including 8 μm pore size collagen-coated (10 μg/ml rat tail collagen; Collaborative Laboratories) polycarbonate filters (Osmonics, Inc.). The bottom chamber wells included 27-29 μl of DMEM medium alone (baseline) or medium containing chemo-attractant (bFGF, VEGF or Swiss 3T3 cell conditioned medium). The top chambers included 45 μl of HUVEC cell suspension (1×10^6 cells/ml) prepared in DMEM+1% BSA with or without the test compound. Followinf 5 h of incubation at 37° C., the membrane was rinsed with PBS, fixed and stained in Diff-Quick solutions. The filter was placed on a glass slide with the migrated cells facing down and cells on top were removed using a Kimwipe. The testing was performed in 4-6 replicates where five fields were counted from each well. Negative unstimulated control values were subtracted from stimulated control and drug treated values. Data wad plotted as mean migrated cell±S.D. IC50 was calculated from the plotted data.

[1] = tested on: MPanc-96 pancreatic tumor cells; assay: MPanc-96 pancreatic tumor xenograft in SCID mice; type: in vivo
Experimental: Mpanc-96 tumor cell injection—MPanc-96 pancreatic tumor cells were obtained from the ATCC(CCL-2380). On day 1, cells (5×10^6 cells/0.2 ml RPMI+FBS) were subcutaneously injected to the right flank, midway between the axillary and inguinal regions, of SCID mice. Prior to injection the cells were mixed by gentle vortexing. The cells were injected using a 25G needle, and the appearance of a bulge was observed. Following injection to animals, cells were counted in the leftover tubes with trypan blue, and re-cultured to test proliferation.
Compound 5 injections—Tumors were measured prior to inhibitor injection. […] The animals were injected intraperitoneally, daily, twice a day, starting 6 days after tumor cells injection, with 50 μl plain DMSO or 50 μl of Compound 5 in DMSO (8 mg/ml in DMSO).
Tumor growth—Tumor size was measured in two perpendicular dimensions, twice a week using digital calipers. Volumes were estimated using the formula (α^2×β)/2, where α is the shorter of the two dimensions, and β is the longer of the two dimensions.
Study termination—At the end of the study, 21 days following tumor cell injection, animals were euthanized by IP veterinary penthal injection. In case of severe weight loss (>20%), a tumor>1000 mm^3 or depression, an animal was euthanized prior to the study's termination day. Upon animal death prior to the end of the study, body weight and tumor size were measured.

T1 sequence (P09038 143-288): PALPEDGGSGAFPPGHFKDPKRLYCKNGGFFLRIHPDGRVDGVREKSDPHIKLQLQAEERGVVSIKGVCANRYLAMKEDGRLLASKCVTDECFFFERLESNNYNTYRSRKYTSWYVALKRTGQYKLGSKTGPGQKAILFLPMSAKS

IC50 (β-FGF): 6.1 µM
IC50 (HT1080 cells): 12 µM
Structure (SMILES): O=C(O)CCCN1C(=O)C(=Cc2ccc(-c3ccc([N+](=O)[O-])cc3)o2)SC1=S [Compound 5]
IC50 (HUVEC cell): 0.4 µM
reduction of tumor volume ([1]; 10 mg/kg/day, compared with 40 mg/kg/day): twice as much reduction
reduction of tumor volume ([1]; 40 mg/kg/day, intraperitoneally, SCID mice): 35%
tumor growth in SCID mice ([1]; mouse, in vivo): inhibited tumor growth in SCID mice efficiently

Reference: patent publication US20050042213A1, “Methods and pharmaceutical compositions for modulating heparanase activation and uses thereof” (InSight Biopharmaceuticals Ltd., priority 2003, published 2005)
